Laboratory results taken from US12721838B2 (Henry Ford Health System, priority 2020, dated 2026).

Molecular target: T1, Trib2-Luciferase (Luc-Trib2) fusion (Homo sapiens, UniProt Q92519)
T1 sequence (Q92519 with tags, fused parts or gaps): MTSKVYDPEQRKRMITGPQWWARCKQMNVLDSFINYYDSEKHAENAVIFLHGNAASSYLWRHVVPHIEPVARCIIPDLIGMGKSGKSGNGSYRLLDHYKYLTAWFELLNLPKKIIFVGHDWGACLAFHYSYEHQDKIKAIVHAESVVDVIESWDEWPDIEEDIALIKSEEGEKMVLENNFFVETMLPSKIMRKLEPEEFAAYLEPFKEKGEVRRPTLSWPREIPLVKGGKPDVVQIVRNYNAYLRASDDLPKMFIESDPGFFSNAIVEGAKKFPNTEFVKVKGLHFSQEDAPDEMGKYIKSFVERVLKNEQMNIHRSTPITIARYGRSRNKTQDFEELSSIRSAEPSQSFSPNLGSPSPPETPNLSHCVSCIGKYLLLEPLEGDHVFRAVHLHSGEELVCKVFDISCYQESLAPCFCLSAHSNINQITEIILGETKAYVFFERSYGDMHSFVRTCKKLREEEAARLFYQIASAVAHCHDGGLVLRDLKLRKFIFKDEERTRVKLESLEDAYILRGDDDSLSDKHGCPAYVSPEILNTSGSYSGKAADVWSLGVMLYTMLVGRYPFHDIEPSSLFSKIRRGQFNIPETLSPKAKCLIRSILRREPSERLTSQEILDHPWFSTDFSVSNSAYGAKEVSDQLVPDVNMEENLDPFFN
Assay: cell-based
Conditions: HFF, read-out: Luciferase activity (%)

Compound | activity at 10 µM
CC(C)N1CCN(c2ccc(OCC3COC(Cn4cncn4)(c4ccc(Cl)cc4Cl)O3)cc2)CC1 (stereo not drawn) [Terconazole] | 82%
COc1cc2nc(N3CCN(C(=O)c4ccco4)CC3)nc(N)c2cc1OC [Prazosin] | 49%
COC(=O)C1=C(C#N)NC(C)=C(C(=O)OC(C)C)C1c1cccc([N+](=O)[O-])c1 (stereo not drawn) [Nilvadipine] | 89%
COc1ccc2c(c1OC)C(=O)O[C@@H]2[C@H]1c2c(cc3c(c2OC)OCO3)CCN1C [Noscapine] | 100%
NCCC[C@H](NC(=O)[C@@H]1CCCN1C(=O)[C@@H]1CSSC[C@H](N)C(=O)N[C@@H](Cc2ccc(O)cc2)C(=O)N[C@@H](Cc2ccccc2)C(=O)N[C@@H](CCC(N)=O)C(=O)N[C@@H](CC(N)=O)C(=O)N1)C(=O)NCC(N)=O [Ornipressin] | 27%
OC1(c2ccc(Cl)c(C(F)(F)F)c2)CCN(CCCC(c2ccc(F)cc2)c2ccc(F)cc2)CC1 [Penfluridol] | 71%
O[C@@H]1CO[C@H]2[C@@H]1OC[C@@H]2O [Isosorbide] | 91%
O=C(CCCN1CC=C(n2c(=O)[nH]c3ccccc32)CC1)c1ccc(F)cc1 [Droperidol] | 100%
O=C1CN2Cc3c(ccc(Cl)c3Cl)N=C2N1 [Anagrelide] | 92%
[H]/N=C(/N)NS(=O)(=O)c1ccc(N)cc1 [Sulfaguanidine] | 84%
CCCc1nc(C(C)(C)O)c(C(=O)O)n1Cc1ccc(-c2ccccc2-c2nnn[nH]2)cc1 [Olmesartan] | 80%
Cc1cccc(C)c1OCC(C)N (stereo not drawn) [Mexiletine] | 86%
CCc1c2c(nc3ccc(OC(=O)N4CCC(N5CCCCC5)CC4)cc13)-c1cc3c(c(=O)n1C2)COC(=O)[C@]3(O)CC [Irinotecan] | 85%
CC(=O)N1C[C@H](O)C[C@H]1C(=O)O [Oxaceprol] | 100%
CCCCCCCCc1ccc(CCC(N)(CO)CO)cc1 [Fingolimod] | 80%
OCCN(CCO)c1nc(N2CCCCC2)c2nc(N(CCO)CCO)nc(N3CCCCC3)c2n1 [Dipyridamole] | 98%
C[C@@](Cc1ccc(O)c(O)c1)(NN)C(=O)O [Carbidopa] | 92%
COc1ccccc1OCC(O)CN1CCN(CC(=O)Nc2c(C)cccc2C)CC1 (stereo not drawn) [Ranolazine] | 100%
C[C@@H](CN1CC(=O)NC(=O)C1)N1CC(=O)NC(=O)C1 [Dexrazoxane] | 100%
CC[C@]12CCCN3CCc4c(n(c5ccccc45)[C@@](O)(C(=O)OC)C1)[C@@H]32 [Vincamine] | 80%
COc1ccc(CN2CCNCC2)c(OC)c1OC [Trimetazidine] | 100%
C[C@]12C=CC(=O)C=C1CC[C@H]1[C@@H]3C[C@@H](O)[C@](O)(C(=O)CO)[C@@]3(C)C[C@H](O)[C@@]12F [Triamcinolone] | 72%
CC1(C)S[C@@H]2[C@H](NC(=O)[C@H](C(=O)O)c3ccsc3)C(=O)N2[C@H]1C(=O)O [Ticarcillin] | 87%
OB1OCc2cc(F)ccc21 [Tavaborole] | 75%

Compound | activity at 10 µM
O=C(Nc1ccc([N+](=O)[O-])cc1Cl)c1cc(Cl)ccc1O [Niclosamide] | 62%
CCOC(=O)OC(C)OC1=C(C(=O)Nc2ccccn2)N(C)S(=O)(=O)c2ccccc21 (stereo not drawn) [Ampiroxicam] | 28%
O=C(O)c1cc(=O)c2c(OCC(O)COc3cccc4oc(C(=O)O)cc(=O)c34)cccc2o1 [Cromolyn] | 93%
CN1CCN2c3ccccc3Cc3ccccc3C2C1 (stereo not drawn) [Mianserin] | 55%
O=c1[nH]c(=O)n(C2CCCO2)cc1F (stereo not drawn) [Tegafur] | 100%
Fc1ccc([C@@H]2CCNC[C@H]2COc2ccc3c(c2)OCO3)cc1 [Paroxetine] | 93%
Cc1cn(-c2cc(NC(=O)c3ccc(C)c(Nc4nccc(-c5cccnc5)n4)c3)cc(C(F)(F)F)c2)cn1 [Nilotinib] | 99%
Cc1cn([C@@H]2C[C@@H](O)[C@H](CO)O2)c(=O)[nH]c1=O [Telbivudine] | 91%
Cc1ccccc1C(=O)Nc1ccc(C(=O)N2CCCC(N(C)C)c3ccccc32)cc1 (stereo not drawn) [Mozavaptan] | 86%
Cc1nnc(NS(=O)(=O)c2ccc(N)cc2)s1 [Sulfamethizole] | 94%
Cc1cc(-c2ccccc2)nnc1NCCN1CCOCC1 [Minaprine] | 79%
C[N+](C)(C)C[C@H](O)CC(=O)[O-] [Levocarnitine] | 84%
CC(C)C(=O)c1c(C(C)C)nn2ccccc12 [Ibudilast] | 85%
Nc1nc(N)c2nc(-c3ccccc3)c(N)nc2n1 [Triamterene] | 100%
N=C(N)NC(=O)Cc1c(Cl)cccc1Cl [Guanfacine] | 100%
CCCCc1nc(C)c(CC(=S)N(C)C)c(=O)n1Cc1ccc(-c2ccccc2-c2nnn[nH]2)cc1 [Fimasartan] | 88%
Cc1c(OCC(F)(F)F)ccnc1C[S+]([O-])c1nc2ccccc2[nH]1 (stereo not drawn) [Lansoprazole] | 78%
CS(=O)(=O)OCCCCOS(C)(=O)=O [Busulfan] | 100%
CC1=C(C(=O)OCCN(Cc2ccccc2)c2ccccc2)C(c2cccc([N+](=O)[O-])c2)C(P2(=O)OCC(C)(C)CO2)=C(C)N1 (stereo not drawn) [Efonidipine] | 98%
CN(C)CCCN1c2ccccc2CCc2ccccc21 [Imipramine] | 86%
CCOC(=O)[C@@H](N)Cc1ccc(-c2cc(O[C@H](c3ccc(Cl)cc3-n3ccc(C)n3)C(F)(F)F)nc(N)n2)cc1 [Telotristat etiprate] | 94%
C[C@H]1c2cccc(O)c2C(=O)C2=C(O)[C@]3(O)C(=O)C(C(N)=O)=C(O)[C@@H](N(C)C)[C@@H]3[C@@H](O)[C@@H]21 [Doxycycline] | 91%
Cc1cccn2c(=O)c(-c3nnn[nH]3)cnc12 [Pemirolast] | 88%
CC(C)OC(=O)C(C)(C)Oc1ccc(C(=O)c2ccc(Cl)cc2)cc1 [Fenofibrate] | 92%

Compound | activity at 10 µM
CC1CCc2c(N3CCC(O)CC3)c(F)cc3c(=O)c(C(=O)O)cn1c23 (stereo not drawn) [Nadifloxacin] | 96%
Cc1cnc(NC(=O)C2=C(O)c3ccccc3S(=O)(=O)N2C)s1 [Meloxicam] | 100%
CC[C@H]1OC(=O)[C@H](C)[C@@H](O[C@H]2C[C@@](C)(OC)[C@@H](O)[C@H](C)O2)[C@H](C)[C@@H](O[C@@H]2O[C@H](C)C[C@H](N(C)C)[C@H]2O)[C@](C)(OC)C[C@@H](C)C(=O)[C@H](C)[C@@H](O)[C@]1(C)O [Clarithromycin] | 97%
CC(=O)OC(C)C[N+](C)(C)C (stereo not drawn) [Methacholine] | 99%
CN1CCC(=C2c3ccccc3CCn3c(C=O)cnc32)CC1 [Alcaftadine] | 100%
O=C1Nc2ccc(Cl)cc2[C@@](C#CC2CC2)(C(F)(F)F)O1 [Efavirenz] | 89%
CN1C(=O)COc2c(C(=O)NC3CN4CCC3CC4)cc(Cl)cc21 (stereo not drawn) [Azasetron] | 100%
Cn1c([N+](=O)[O-])cnc1COC(N)=O [Ronidazole] | 100%
CCCOc1ccc(C(=O)OCCN(CC)CC)cc1N [Proparacaine] | 88%
COc1cc([C@@H]2c3cc4c(cc3[C@@H](O[C@@H]3O[C@@H]5CO[C@@H](c6cccs6)O[C@H]5[C@H](O)[C@H]3O)[C@H]3COC(=O)[C@H]23)OCO4)cc(OC)c1O [Teniposide] | 70%
CCOC(=O)CC(SP(=S)(OC)OC)C(=O)OCC (stereo not drawn) [Malathion] | 91%
CCN(CC)C(=O)C1(c2ccccc2)CC1CN (stereo not drawn) [Milnacipran] | 85%
CC(=O)OCC(=O)[C@@]12OC(C)(C)O[C@@H]1C[C@H]1[C@@H]3C[C@H](F)C4=CC(=O)C=C[C@]4(C)[C@@]3(F)[C@@H](O)C[C@@]12C [Fluocinonide] | 78%
Cc1ccc(C(=O)Nc2ccc(CN3CCN(C)CC3)c(C(F)(F)F)c2)cc1C#Cc1cnc2cccnn12 [Ponatinib] | 42%
Nc1ccc(S(=O)(=O)Nc2ncccn2)cc1 [Sulfadiazine] | 70%
CCOC(=O)c1cncn1[C@H](C)c1ccccc1 [Etomidate] | 100%
CCOC(=O)N[C@@H]1CC[C@@H]2[C@@H](C1)C[C@H]1C(=O)O[C@H](C)[C@H]1[C@H]2/C=C/c1ccc(-c2cccc(F)c2)cn1 [Vorapaxar] | 59%
C#Cc1cccc(Nc2ncnc3cc(OCCOC)c(OCCOC)cc23)c1 [Erlotinib] | 50%
CC(C)(C)c1nc(-c2cccc(NS(=O)(=O)c3c(F)cccc3F)c2F)c(-c2ccnc(N)n2)s1 [Dabrafenib] | 72%
C[C@]12CC[C@@H]3c4ccc(O)cc4CC[C@H]3[C@@H]1CCC2=O [Estrone] | 82%
O=C(O)CCNC(=O)c1ccccc1 [Betamipron] | 87%
c1cc(CN2CCCNCCNCCCNCC2)ccc1CN1CCCNCCNCCCNCC1 [Plerixafor] | 93%
CN(C)c1cc(NC(=O)CNC(C)(C)C)c(O)c2c1C[C@H]1C[C@H]3[C@H](N(C)C)C(O)=C(C(N)=O)C(=O)[C@@]3(O)C(O)=C1C2=O [Tigecycline] | 63%
COc1cc(N)c(Cl)cc1C(=O)NC1CCN(Cc2ccccc2)CC1 [Clebopride] | 100%
